Measurements taken from EP4737449A1 (Changchun Genescience Pharmaceutical Co., Ltd., priority 2023, dated 2025).
pIC50: −log10 of the molar value. Counter-ions that a name gives are not always drawn. Like-named read-outs stand apart in the source and are kept apart here.

Tests used:
[1] = target: T1, p53-Y220C mutant protein (Homo sapiens, UniProt P04637, Y220C); test: In vitro DNA binding activity assay (TR-FRET); format: biochemical; conditions: concentration required to increase the binding activity of protein to DNA by 50%
T1 construct: The recombinant Y220C p53 DBD protein with his-tag
In short: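 His-tagged Y220C p53 DBD was equilibrated with compound 60 min at room temperature, then biotin-DNA, anti-6His-Eu and streptavidin-d2 were added and incubated overnight in the dark. TR-FRET 665/615 nm ratio, background-corrected, was expressed as % activity versus vehicle; SC150 is the concentration raising DNA binding by 50%.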

[2] = tested on: NUGC-3 cells; test: NUGC-3 cell proliferation assay (CTG, 7 days); format: cell-based, human
Procedure: The cells were cultured in strict accordance with ATCC requirements.
Cell culture medium: 1640 culture medium, 10% serum, 1% penicillin + streptomycin.
Culture conditions: 37°C, 95% air, 5% carbon dioxide.
Compounds (20 mM) were subjected to gradient dilution in DMSO: 10 gradients, 3-fold dilution, duplicate wells.
Positive and negative controls (100% dimethyl sulfoxide) were prepared.
The compounds that were gradient diluted with DMSO and positive and negative controls (1st and 2nd step), each 75 nL, were transferred to 384-well cell culture plates by Echo550.
The cells were washed twice with PBS, digested with trypsin, and centrifuged for cell counting.
The experiment can only be carried out when the cell viability is above 90%.
The cells were plated into 384-well cell culture plates, with 200 (NUGC-3) cells and 30 µL of culture medium per well.
The 384-well microplate was placed in a cell culture incubator for 7 days.
30 µL of CTG detection reagent was added to the 384-well microplate.
The 384-well microplate was incubated for 30 min at 37°C, 5% carbon dioxide in the dark.
The reading was performed by a multi-functional microplate reader Envision.
% Inhibition is calculated as follows: % Inhibition = 100−(Signalcmpd−SignalAve_BL)/(SignalAve_VC−SignalAve_BL)*100 [formula] • Signalcmpd: Average signal of the compound in the cell plate • Signalave_vc: Average signal of the negative control in the cell plate • Signalave_BL: Average signal of the blank wells in the cell plate
IC50 was calculated by fitting % inhibition and compound concentration logarithmically to a nonlinear regression (dose response - variable slope) using Graphpad 8.0. Table 2 IC50 of selected compounds in NUGC-3 cell proliferation assay

[3] = Homo sapiens, NUGC-3, 168 h, NUGC-3 cell proliferation, 7 days, CTG, read-out: IC50

SC150 [1] [nM] | SMILES | pIC50 [2, 3] | pIC50 ([2]; Homo sapiens, NUGC-3, 168 h) | pIC50 ([2]; NUGC-3 cell proliferation, 7 days, CTG, read-out: IC50)
13 | CN1CC[C@@H](Nc2cccc3c(CC(F)(F)F)c(C#CCNC(=O)c4ccn(C)c4)nn23)[C@@H](F)C1 [Compound 270, N-[3-(7-{[(3S,4R)-3-fluoro-1-methylpiperidin-4-yl]amino}-3-(2,2,2-trifluoroethyl)pyrazolo[1,5-a]pyridin-2-yl)prop-2-yn-1-yl]-1-methyl-1H-pyrrole-3-carboxamide] | 6.09 | – | –
7 | CN1CC[C@@H](Nc2cccc3c(CC(F)(F)F)c(C#CCNC(=O)c4cnn(C5CC5)c4N)nn23)[C@@H](F)C1 [Compound 305, 5-amino-N-[3-(7-{[(3S,4R)-3-fluoro-1-methylpiperidin-4-yl]amino}-3-(2,2,2-trifluoroethyl)pyrazolo[1,5-a]pyridin-2-yl)prop-2-yn-1-yl]-1-(cyclopropyl)-1H-pyrazole-4-carboxamide] | 6.71 | – | –
18 | CN1CC[C@@H](Nc2cccc3c(CC(F)(F)F)c(C#CCNC(=O)c4cc5n(c4)CCC5)nn23)[C@@H](F)C1 [Compound 260, N-[3-(7-{[(3S,4R)-3-fluoro-1-methylpiperidin-4-yl]amino}-3-(2,2,2-trifluoroethyl)pyrazolo[1,5-a]pyridin-2-yl)prop-2-yn-1-yl]-2,3-dihydro-1H-pyrrolizine-6-carboxamide] | 5.92 | – | –
35 | CN1CC[C@@H](Nc2cccc3c(CC(F)(F)F)c(C#CCNC(=O)c4ccc(N5CCC5)nc4)nn23)[C@@H](F)C1 [Compound 314, 6-(azetidin-1-yl)-N-[3-(7-{[(3S,4R)-3-fluoro-1-methylpiperidin-4-yl]amino}-3-(2,2,2-trifluoroethyl)pyrazolo[1,5-a]pyridin-2-yl)prop-2-yn-1-yl]-3-nicotinamide] | 5.92 | – | –
27 | CN1CC[C@@H](Nc2cccc3c(CC(F)(F)F)c(C#CCNC(=O)c4ccn5c4COCC5)nn23)[C@@H](F)C1 [Compound 301, N-[3-(7-{[(3S,4R)-3-fluoro-1-methylpiperidin-4-yl]amino}-3-(2,2,2-trifluoroethyl)pyrazolo[1,5-a]pyridin-2-yl)prop-2-yn-1-yl]-3,4-dihydro-1H-pyrrolo[2,1-c][1,4]oxazine-8-carboxamide] | 5.92 | – | –
23 | CN1CC[C@@H](Nc2cccc3c(CC(F)(F)F)c(C#CCNC(=O)c4cc(C#N)n(C)c4)nn23)[C@@H](F)C1 [Compound 271, 5-cyano-N-[3-(7-{[(3S,4R)-3-fluoro-1-methylpiperidin-4-yl]amino}-3-(2,2,2-trifluoroethyl)pyrazolo[1,5-a]pyridin-2-yl)prop-2-yn-1-yl]-1-methyl-1H-pyrrole-3-carboxamide] | 6.03 | – | –
7 | CC(C1CC1)n1ncc(C(=O)NCC#Cc2nn3c(N[C@@H]4CCN(C)C[C@@H]4F)cccc3c2CC(F)(F)F)c1N (stereo partly drawn) [Compound 291, 5-amino-1-(1-cyclopropylethyl)-N-[3-(7-{[(3S,4R)-3-fluoro-1-methylpiperidin-4-yl]amino}-3-(2,2,2-trifluoroethyl)pyrazolo[1,5-a]pyridin-2-yl)prop-2-yn-1-yl]-1H-pyrazole-4-carboxamide] | 6.60 | – | –
28 | CN1CC[C@@H](Nc2cccc3c(CC(F)(F)F)c(C#CCNC(=O)c4ccn(C5(C)CC5)c4)nn23)[C@@H](F)C1 [Compound 313, N-[3-(7-{[(3S,4R)-3-fluoro-1-methylpiperidin-4-yl]amino}-3-(2,2,2-trifluoroethyl)pyrazolo[1,5-a]pyridin-2-yl)prop-2-yn-1-yl]-1-(1-methylcyclopropyl)-1H-pyrrole-3-carboxamide] | 5.86 | – | –
28 | CN1CC[C@@H](Nc2cccc3c(CC(F)(F)F)c(C#CCNC(=O)c4cc(Cl)n(C)c4)nn23)[C@@H](F)C1 [Compound 326, 5-chloro-N-(3-(7-{[(3S,4R)-3-fluoro-1-methylpiperidin-4-yl]amino}-3-(2,2,2-trifluoroethyl)pyrazolo[1,5-a]pyridin-2-yl)prop-2-yn-1-yl)-1-methyl-1H-pyrrole-3-carboxamide] | 5.93 | – | –
6 | CC(C)n1ncc(C(=O)NCC#Cc2nn3c(N[C@@H]4CCN(C)C[C@@H]4F)cccc3c2CC(F)(F)F)c1N [Compound 306, 5-amino-N-[3-(7-{[(3S,4R)-3-fluoro-1-methylpiperidin-4-yl]amino}-3-(2,2,2-trifluoroethyl)pyrazolo[1,5-a]pyridin-2-yl)prop-2-yn-1-yl]-1-isopropyl-1H-pyrazole-4-carboxamide] | 6.85 | – | –

More lines, now with the values behind:

SMILES | SC150 [1] [nM] | pIC50 [2, 3] | pIC50 ([2]; Homo sapiens, NUGC-3, 168 h) | pIC50 ([2]; NUGC-3 cell proliferation, 7 days, CTG, read-out: IC50)
CN1CC[C@@H](Nc2cccc3c(CC(F)(F)F)c(C#CCNC(=O)c4ccc(N5CCCCC5)nc4)nn23)[C@@H](F)C1 [Compound 316, N-[3-(7-{[(3S,4R)-3-fluoro-1-methylpiperidin-4-yl]amino}-3-(2,2,2-trifluoroethyl)pyrazolo[1,5-a]pyridin-2-yl)prop-2-yn-1-yl]-6-(piperidin-1-yl)nicotinamide] | 97 | 5.67 | – | –
Cc1cc(C(=O)NCC#Cc2nn3c(N[C@@H]4CCN(C)C[C@@H]4F)cccc3c2CC(F)(F)F)[nH]c1C [Compound 317, N-[3-(7-{[(3S,4R)-3-fluoro-1-methylpiperidin-4-yl]amino}-3-(2,2,2-trifluoroethyl)pyrazolo[1,5-a]pyridin-2-yl)prop-2-yn-1-yl]-4,5-dimethyl-1H-pyrrole-2-carboxamide] | 44 | 5.89 | – | –
CN(C)C1CC[C@@H](Nc2cccc3c(CC(F)(F)F)c(C#CCNC(=O)c4cnn(C(C)(C)C)c4N)nn23)[C@@H](F)C1 (single isomer, unassigned) [Compound 358-A] | 2 | 6.91 | – | –
CN1CC[C@@H](Nc2cccc3c(CC(F)(F)F)c(C#CCNC(=O)C4CC4)nn23)[C@@H](F)C1 [Compound 135, N-[3-(7-{[(3S,4R)-3-fluoro-1-methylpiperidin-4-yl]amino}-3-(2,2,2-trifluoroethyl)pyrazolo[1,5-a]pyridin-2-yl)prop-2-yn-1-yl]cycloproplycarboxamide] | 22 | – | 5.78 | –
CC(C)n1cnc(C(=O)NCC#Cc2nn3c(N[C@@H]4CCN(C)C[C@@H]4F)cccc3c2CC(F)(F)F)c1 [Compound 320, N-[3-(7-{[(3S,4R)-3-fluoro-1-methylpiperidin-4-yl]amino}-3-(2,2,2-trifluoroethyl)pyrazolo[1,5-a]pyridin-2-yl)prop-2-yn-1-yl]-1-isopropyl-1H-imidazole-4-carboxamide] | 28 | 5.81 | – | –
CC(C1CC1)n1ncc(C(=O)NCC#Cc2nn3c(N[C@@H]4CCN(C)C[C@@H]4F)cccc3c2CC(F)(F)F)c1N (single isomer, unassigned) [Compound 291B] | 4 | – | – | 6.79
CN1CC[C@@H](Nc2cccc3c(CC(F)(F)F)c(C#CCNC(=O)c4ccn(C5CC5)c4)nn23)[C@@H](F)C1 [Compound 280, 1-cycloproyl-N-[3-(7-{[(3S,4R)-3-fluoro-1-methylpiperidin-4-yl]amino}-3-(2,2,2-ethyl trifluoroacetate)pyrazolo[1,5-a]pyridin-2-yl)-prop-2-yn-1-yl]-1H-pyrrole-3-carboxamide] | 16 | – | 5.97 | –
CCc1ccc(C(=O)NCC#Cc2nn3c(N[C@@H]4CCN(C)C[C@@H]4F)cccc3c2CC(F)(F)F)cn1 [Compound 331, 6-ethyl-N-[3-(7-{[(3S,4R)-3-fluoro-1-methylpiperidin-4-yl]amino}-3-(2,2,2-trifluoroethyl)pyrazolo[1,5-a]pyridin-2-yl)prop-2-yn-1-yl]pyridine-3-carboxamide] | 36 | 5.76 | – | –
CN1CC[C@@H](Nc2cccc3c(CC(F)(F)F)c(C#CCNC(=O)c4cnn(C(C)(C)C5CC5)c4N)nn23)[C@@H](F)C1 [Compound 290, 5-amino-1-(2-cyclopropylprop-2-yl)-N-[3-(7-{[(3S,4R)-3-fluoro-1-methylpiperidin-4-yl]amino}-3-(2,2,2-trifluoroethyl)pyrazolo[1,5-a]pyridin-2-yl)prop-2-yn-1-yl]-1H-pyrazole-4-carboxamide] | 11 | 6.45 | – | –
COC(C)(C)Cn1ccc(C(=O)NCC#Cc2nn3c(N[C@@H]4CCN(C)C[C@@H]4F)cccc3c2CC(F)(F)F)c1 [Compound 300, N-[3-(7-{[(3S,4R)-3-fluoro-1-methylpiperidin-4-yl]amino}-3-(2,2,2-trifluoroethyl)pyrazolo[1,5-a]pyridin-2-yl)prop-2-yn-1-yl]-1-(2-methoxy-2-methylpropyl)-1H-pyrrole-3-carboxamide] | 12 | 6.39 | – | –
